Among the data in PubChem BioAssay (NCI) are TGI and GI50 values, retold here.

What all share (experiment): NCI anticancer screen, dose series, 48 h
The subject of test [1] is SNB-19 CNS.
Test [2] has as its system HL-60(TB) leukemia.
For test [3], the system named is MALME-3M melanoma.
For test [4], the system named is SNB-75 CNS.
Test [5] has as its system CAKI-1 renal.
Test [6] has as its system CCRF-CEM leukemia.
Test [7] deals with OVCAR-5 ovarian.
Test [8] has as its system LOX IMVI melanoma.
Test [9] has as its system U251 CNS.
For test [10], the system named is SK-MEL-2 melanoma.

Structures are written as SMILES.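 All cell lines were grown in 96-well plates and treated with compound for 48 hours. GI50 is the concentration that inhibits growth by half. Definition used: TGI = concentration required for complete inhibition of growth.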

Consider `CCOC(=O)N1C2C=C(C)C(C3C(C)C(=O)N31)N(C(=O)c1ccccc1)O2` (stereo not drawn), for which the TGI in test [1], in test [2], in test [3], in test [4], in test [5] and in test [6] was above 100 µM throughout. Besides, the TGI in test [7], in [8], in [9] and in test [10] was above 100 µM throughout.
As to `CSc1nc(-c2ccccc2)c2c(n1)-c1ccccc1CC2`, the TGI in test [1], in [2], in test [3], in test [4], in test [5] and in test [6] was above 100 µM throughout. The TGI in test [7], in test [8], in test [9] and in test [10] was above 100 µM each time.
On to `N/N=C(\Cc1ccccc1)NN=C(N)N`, for which the TGI in test [2], in test [3], in test [4], in test [5], in test [6] and in test [7] was above 100 µM each time. Besides, the TGI in test [8], in test [9] and in test [10] was above 100 µM in each case.
As for `O=C1c2ccccc2C(=O)C1C(c1ccc([N+](=O)[O-])cc1)C1C(=O)c2ccccc2C1=O`, the TGI is above 100 µM in test [1]; above 100 µM in [2]; above 100 µM in test [3]; above 100 µM in [4]; 95 µM in [5]; above 100 µM in [6]. Moreover, the TGI was above 100 µM in test [7], 32.5 µM in test [8], above 100 µM in [9] and above 100 µM in test [10].
Turning to `C=C(C)CCC(C)N1CCC(N2CCC(C(=O)NCCc3ccccc3)CC2)CC1` (stereo not drawn), the GI50 was 58.9 µM in test [1]; 25.7 µM in test [2]; 11.8 µM in [3]; 14.1 µM in [4]; 17.3 µM in test [5]; 19.9 µM in [6]. Moreover, the GI50 in test [7] was 78.9 µM; in test [8], 15.8 µM; in test [9] it was 14.4 µM; in test [10], 21.3 µM. Besides, the TGI in test [1] was above 100 µM; in [2], above 100 µM; in test [3], 26.9 µM; in [4], 44.6 µM; in [5], 75.4 µM; in [6], above 100 µM. Moreover, the TGI in test [7] is above 100 µM; in test [8], 35.5 µM; in test [9], 33 µM; in test [10] it was 54.3 µM.
On to `COc1cc(Oc2c(O)c(C)c(OC)c(C(C)=O)c2O)c(C(C)=O)c(O)c1C`, for which the TGI in [1], in [3], in [4], in test [5], in test [6] and in test [7] was above 100 µM each time. For the same compound, the TGI in test [8] and in test [9] was above 100 µM throughout.
Turning to `Fc1ccc(Nc2nccc(-c3c(-c4ccc(C(F)(F)F)cc4)nn4ncccc34)n2)cc1F`, the GI50 in [1], in test [2], in [3], in test [4], in test [5] and in [6] was above 25 µM throughout. Moreover, the GI50 in test [7], in test [8] and in [9] was above 25 µM in each case. Besides, the TGI in [1], in test [2], in test [3], in test [4], in test [5] and in test [6] was above 25 µM each time. Further, the TGI in [7], in test [8] and in [9] was above 25 µM in each case.
As to `COc1ccc(COCC(Cn2ccnc2)OCc2ccc(C(=O)O)cc2)cc1` (stereo not drawn), the TGI in test [2], in test [3], in test [4], in test [5], in [6] and in [7] was above 100 µM in each case. For the same compound, the TGI in test [8], in test [9] and in test [10] was above 100 µM throughout.
For the compound `CC(CCCOC(c1ccccc1)(c1ccccc1)c1ccccc1)OC(=O)Nc1cc([N+](=O)[O-])cc([N+](=O)[O-])c1` (stereo not drawn), the TGI in test [1] was above 100 µM; in test [2], 85.3 µM; in test [3], 83.2 µM; in test [4], 72.5 µM; in test [5], 72.1 µM; in [6] it was above 100 µM. In addition, the TGI in test [8] is above 100 µM; in [9] it was 83.8 µM; in test [10] it was 78.9 µM.
On to `Clc1ccc2nc(Oc3ccccc3)cnc2c1`, for which the GI50 in [1] is above 100 µM; in test [2] it was above 100 µM; in [3], above 100 µM; in test [4] it was 59 µM; in test [5], above 100 µM; in test [6], above 100 µM. The GI50 in test [7], in [8] and in [9] was above 100 µM each time. Also, the TGI in [1], in test [2], in test [3], in [4], in test [5] and in [6] was above 100 µM each time. Further, the TGI in test [7], in test [8] and in [9] was above 100 µM throughout.
With `N#Cc1ccccc1NC(=O)c1ccccc1`, the TGI in test [1], in [3], in test [4], in test [5], in test [7] and in test [8] was above 100 µM each time. The TGI in test [9] and in test [10] was above 100 µM throughout.
As for `O=C(O)c1c[nH]cc1C(=O)O`, the TGI in test [1], in [2], in [3], in [4], in test [5] and in test [6] was above 100 µM in each case. Further, the TGI in test [7], in [8] and in test [9] was above 100 µM each time.
Turning to `S=c1ssc(Sc2ccccn2)c1Cl`, the GI50 in test [1] is 17 µM; in [2], 3.56 µM; in test [4], 23.3 µM; in test [5], 17.6 µM; in [7], 25.6 µM; in test [8], 5.09 µM. The GI50 was 11 µM in test [9] and 34.6 µM in [10]. For the same compound, the TGI stood at 41 µM in test [1]; 9.78 µM in test [2]; 56.8 µM in test [4]; 31.4 µM in test [5]; 48.3 µM in test [7]; 17 µM in test [8]. Further, the values for the TGI in [9] and in test [10] were 22.9 µM and above 100 µM, respectively.
Turning to `COc1ccc(-c2ccc(/C=N/n3c(COc4ccc(Cl)cc4)n[nH]c3=S)o2)c([N+](=O)[O-])c1`, the GI50 in [1] was 20.1 µM; in test [2] it was 14.8 µM; in test [3], 14.1 µM; in [4] it was 37.4 µM; in test [5] it was 3.96 µM; in test [6] it was 17.5 µM. Moreover, the values for the GI50 in [7], in test [9] and in test [10] were 24.7 µM, 15.5 µM and 41.9 µM, respectively. Also, the TGI in test [1] is 53.6 µM; in [2] it was 44.3 µM; in test [3] it was 37 µM; in test [4] it was above 100 µM; in [5], 22.2 µM; in test [6], 52 µM. Besides, the TGI was 51.4 µM in [7], 49.7 µM in [9] and above 100 µM in test [10].
For the compound `N#CC1C(N)=NNC12Nc1ccccc1N2` (stereo not drawn), the GI50 in [1] is 17.8 µM; in test [2] it was 52.4 µM; in test [4], 24.8 µM; in test [5], 11.7 µM; in [7], above 100 µM; in [8] it was 26.7 µM. For the same compound, the GI50 in [9] is 22.6 µM; in test [10], 15.1 µM. In addition, the TGI in [1] is 91 µM; in [2], above 100 µM; in [4] it was above 100 µM; in [5] it was 74.5 µM; in [7], above 100 µM; in [8] it was above 100 µM. Moreover, the figures for the TGI in [9] and in test [10] were above 100 µM and 77.5 µM, respectively.
On to `Cc1ccc2c(c1)ncn2-c1ncnc2c1CC(C)c1ccccc1N2C` (stereo not drawn), for which the GI50 in test [1] is 0.17 µM; in [2], 0.0282 µM; in test [3], 0.0513 µM; in [4] it was 0.0892 µM; in [5], 0.127 µM; in test [6], 0.046 µM. The GI50 in [8] was 0.124 µM; in test [9], 0.086 µM; in test [10] it was 1.13 µM. Also, the TGI in test [1] was 20.7 µM; in [2], 0.0781 µM; in test [3], 4.6 µM; in [4], 18.1 µM; in [5], 13.7 µM; in test [6], 10.5 µM. Also, the TGI in test [8] came out at 13 µM; in test [9], 13.9 µM; in test [10] it was 18.3 µM.
Consider `CN(C)C(=O)C1CCC(=C2C(=O)OC(C)(C)OC2=O)N1C` (stereo not drawn), for which the TGI in [1], in test [3], in test [4], in [5], in test [6] and in test [7] was above 100 µM each time. The TGI in test [8], in [9] and in test [10] was above 100 µM each time.
For `O=C1CC2C(=O)N(Cc3ccccc3)C1C(S(=O)(=O)c1ccccc1)C2S(=O)(=O)c1ccccc1` (stereo not drawn), the TGI in [2] stood at 3.51 µM; in test [3], 3.87 µM; in [4] it was 21.2 µM; in test [5], 1.85 µM; in test [6], 3.46 µM; in test [7], 31.9 µM. Also, the TGI in test [8] was 3.32 µM; in [9], 8.61 µM.
As for `C=C(C)[C@@H]1CC[C@@]2(C)[C@H]1[C@H]1CCC3[C@@]4(C)CC[C@H](O)C(C)(C)[C@@H]4CC[C@@]3(C)[C@]1(C)C[C@@H]2O` (stereo partly drawn), the TGI in test [1], in [2], in test [3], in [4], in test [5] and in [6] was above 100 µM in each case. Besides, the TGI in [7], in [8] and in test [9] was above 100 µM each time.
As to `Cc1c(C)c2ccc(OC/C=C3\CCC(=O)O3)cc2oc1=O`, the GI50 was 17.2 µM in [1]; 11.9 µM in [3]; 12.3 µM in test [4]; 15.3 µM in test [5]; 17.4 µM in test [6]; 16.5 µM in test [7]. For the same compound, the GI50 in test [8] was 15.2 µM; in test [9] it was 15.7 µM; in test [10], 14.2 µM. In addition, the TGI stood at 35.9 µM in test [1]; 26.7 µM in [3]; 24.8 µM in test [4]; 30.6 µM in test [5]; 58.4 µM in test [6]; 31.1 µM in test [7]. Also, the figures for the TGI in [8], in test [9] and in [10] were 29.4 µM, 29.3 µM and 30.7 µM, respectively.
In the case of `C[C@H](CSC(=O)c1ccccc1)C(=O)N1c2ccccc2C[C@H]1C(=O)O`, the TGI in test [1], in test [2], in test [4], in test [5], in [6] and in [7] was above 100 µM in each case. Further, in test [9], the TGI was above 100 µM.
In the case of `O=C1C(=O)N(C2C3CC4CC(C3)CC2C4)C(=O)C(=O)C1c1nc2ccccc2o1` (stereo not drawn), the TGI in test [1], in test [3], in test [4], in test [5], in test [7] and in [8] was above 100 µM in each case. In addition, the TGI in test [9] and in test [10] was above 100 µM throughout.
Regarding `CN(C)CCNC(=O)c1ccc(Cl)c2c(Nc3ccc(S(N)(=O)=O)cc3)c3ccccc3nc12`, the TGI came out at 14.5 µM in [1]; 12.5 µM in test [3]; 4.72 µM in [4]; 17.1 µM in [5]; 8.48 µM in [7]; 2.35 µM in test [8]. Moreover, the TGI was 14.1 µM in test [9] and 4 µM in [10].
